Here are results for 13 molecules from patent publication US20250145665A1, “MACROCYCLIC PEPTIDES USEFUL AS MODULATORS OF TNF ALPHA” (Bristol-Myers Squibb Company, priority 2023, published 2025).

Starred links: 1 amine or outer side, 2 acyl side, 3 side chain; linkers in the order of their positions; H or OH if unused. Positions of bridges follow the written chain, without caps; N, C: chain ends. Non-standard residues stand in square brackets, D forms with d. Residues, ends and D or L forms follow the SMILES beside them. *: point of attachment. Bip(4'-NHCO-C6H4-3-CH2COOH) = N[C@@H](Cc1ccc(-c2ccc(NC(=O)c3cccc(CC(=O)O)c3)cc2)cc1)C(=O)O; Bip(4'-NHCO-C6H4-4-CH2COOH) = N[C@@H](Cc1ccc(-c2ccc(NC(=O)c3ccc(CC(=O)O)cc3)cc2)cc1)C(=O)O; dArg(Nω-CH2C6H4-3-CH2Gua) = N=C(N)NCc1cccc(CNC(=N)NCCC[C@@H](N)C(=O)O)c1; Bip(4'-NH) = O=C([C@H](Cc1ccc(-c2ccc(N[*:3])cc2)cc1)N[*:1])[*:2]; dArg(ω-(3-HO-benzyl)) = N=C(NCCC[C@@H](N)C(=O)O)NCc1cccc(O)c1; Indazole3carbonyl(1-CH2COOH) = O=C(O)Cn1nc(C(=O)*)c2ccccc21; Bip(4'-COOH) = N[C@@H](Cc1ccc(-c2ccc(C(=O)O)cc2)cc1)C(=O)O; Ala(morpholin-4-yl) = N[C@@H](CN1CCOCC1)C(=O)O; Benzoyl(3-OCH2COOH) = O=C(O)COc1cccc(C(=O)*)c1; Phe(3-CONH2) = NC(=O)c1cccc(C[C@H](N)C(=O)O)c1; Bip = N[C@@H](Cc1ccc(-c2ccccc2)cc1)C(=O)O; 2Pal = N[C@@H](Cc1ccccn1)C(=O)O; 2Thi = N[C@@H](Cc1cccs1)C(=O)O; Cha = N[C@@H](CC1CCCCC1)C(=O)O; Tle = CC(C)(C)[C@H](N)C(=O)O; Sar = CNCC(=O)O Bounds are passed on as bounds.

TNFα, sequence (P01375 77-233 limits assumed): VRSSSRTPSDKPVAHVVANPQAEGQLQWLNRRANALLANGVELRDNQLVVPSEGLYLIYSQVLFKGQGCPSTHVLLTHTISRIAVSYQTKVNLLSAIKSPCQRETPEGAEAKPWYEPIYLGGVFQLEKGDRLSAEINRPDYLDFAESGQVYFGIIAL

One test concerns the target TNFα (Homo sapiens, UniProt P01375). Kind of test: TNF-Induced HEK-Blue Assay.
Conditions: not given
It counts as cell-based.
For `CC(C)C[C@@H]1NC(=O)[C@H](Cc2cccc(C(N)=O)c2)NC(=O)[C@H](C(C)C)NC(=O)[C@@H]2CCCN2C(=O)[C@H](C(C)C)NC(=O)[C@@H](CCCNC(=N)NCc2cccc(CNC(=N)N)c2)NC(=O)[C@H](CC(=O)O)NC(=O)[C@H](Cc2ccc(O)cc2)NC(=O)CN(C)C(=O)[C@H](Cc2ccc(-c3ccc(NC(=O)c4nn(CC(=O)O)c5ccccc45)cc3)cc2)NC(=O)[C@H](Cc2ccc(-c3ccccc3)cc2)NC(=O)[C@H](CN2CCOCC2)NC(=O)CSC[C@@H](C(=O)NCC(N)=O)NC1=O` [Example 620] ({CH2CO}-[Ala(morpholin-4-yl)][Bip][Bip(4'-NH)](Indazole3carbonyl(1-CH2COOH))[Sar]YD[dArg(Nω-CH2C6H4-3-CH2Gua)]VPV[Phe(3-CONH2)]LCG-NH2; thioether N-13), the IC50 was < 50 nM.
On the same count and under the same terms, under `CC(C)C[C@@H]1NC(=O)[C@H](Cc2cnc[nH]2)NC(=O)[C@H](C(C)C)NC(=O)[C@@H]2CCCN2C(=O)[C@H](C(C)C)NC(=O)[C@@H](CCCNC(=N)NCc2cccc(CNC(=N)N)c2)NC(=O)[C@H](CC(=O)O)NC(=O)[C@H](Cc2ccccn2)NC(=O)CN(C)C(=O)[C@H](Cc2ccc(-c3ccc(NC(=O)c4nn(CC(=O)O)c5ccccc45)cc3)cc2)NC(=O)[C@H](Cc2ccc(-c3ccccc3)cc2)NC(=O)[C@H](CN2CCOCC2)NC(=O)CSC[C@@H](C(=O)NCC(N)=O)NC1=O` [Example 621] ({CH2CO}-[Ala(morpholin-4-yl)][Bip][Bip(4'-NH)](Indazole3carbonyl(1-CH2COOH))[Sar][2Pal]D[dArg(Nω-CH2C6H4-3-CH2Gua)]VPVHLCG-NH2; thioether N-13) stands < 50 nM; under `CC(C)C[C@@H]1NC(=O)[C@H](Cc2ccc(O)cc2)NC(=O)[C@H](C(C)C)NC(=O)[C@@H]2CCCN2C(=O)[C@H](C(C)C)NC(=O)[C@@H](CCCNC(=N)NCc2cccc(CNC(=N)N)c2)NC(=O)[C@H](CC(=O)O)NC(=O)[C@@H]2CCCN2C(=O)CN(C)C(=O)[C@H](Cc2ccc(-c3ccc(NC(=O)c4nn(CC(=O)O)c5ccccc45)cc3)cc2)NC(=O)[C@H](Cc2ccc(-c3ccccc3)cc2)NC(=O)[C@H](CN2CCOCC2)NC(=O)CSC[C@@H](C(=O)NCC(N)=O)NC1=O` [Example 622] ({CH2CO}-[Ala(morpholin-4-yl)][Bip][Bip(4'-NH)](Indazole3carbonyl(1-CH2COOH))[Sar]PD[dArg(Nω-CH2C6H4-3-CH2Gua)]VPVYLCG-NH2; thioether N-13), < 50 nM; under `CC(C)C[C@@H]1NC(=O)[C@H](Cc2cccs2)NC(=O)[C@H](C(C)C)NC(=O)[C@@H]2CCCN2C(=O)[C@H](C(C)C)NC(=O)[C@@H](CCCNC(=N)NCc2cccc(CNC(=N)N)c2)NC(=O)[C@H](CC(=O)O)NC(=O)[C@H](Cc2ccccn2)NC(=O)CN(C)C(=O)[C@H](Cc2ccc(-c3ccc(NC(=O)c4nn(CC(=O)O)c5ccccc45)cc3)cc2)NC(=O)[C@H](Cc2ccc(-c3ccccc3)cc2)NC(=O)[C@H](CN2CCOCC2)NC(=O)CSC[C@@H](C(=O)NCC(N)=O)NC1=O` [Example 623] ({CH2CO}-[Ala(morpholin-4-yl)][Bip][Bip(4'-NH)](Indazole3carbonyl(1-CH2COOH))[Sar][2Pal]D[dArg(Nω-CH2C6H4-3-CH2Gua)]VPV[2Thi]LCG-NH2; thioether N-13), < 50 nM.
`CC(C)C[C@@H]1NC(=O)[C@H](Cc2cnc[nH]2)NC(=O)[C@H](C(C)C)NC(=O)[C@@H]2CCCN2C(=O)[C@H](C(C)C)NC(=O)[C@@H](CCCNC(=N)NCc2cccc(O)c2)NC(=O)[C@H](CC(=O)O)NC(=O)[C@H](Cc2ccccn2)NC(=O)CN(C)C(=O)[C@H](Cc2ccc(-c3ccc(NC(=O)c4nn(CC(=O)O)c5ccccc45)cc3)cc2)NC(=O)[C@H](Cc2ccc(-c3ccccc3)cc2)NC(=O)[C@H](CN2CCOCC2)NC(=O)CSC[C@@H](C(=O)NCC(N)=O)NC1=O` [Example 624] ({CH2CO}-[Ala(morpholin-4-yl)][Bip][Bip(4'-NH)](Indazole3carbonyl(1-CH2COOH))[Sar][2Pal]D[dArg(ω-(3-HO-benzyl))]VPVHLCG-NH2; thioether N-13): the IC50 is < 50 nM.
As to `CC(C)C[C@@H]1NC(=O)[C@H](Cc2ccc(O)cc2)NC(=O)[C@H](C(C)C)NC(=O)[C@@H]2CCCN2C(=O)[C@H](C(C)C)NC(=O)[C@@H](CCCNC(=N)NCc2cccc(O)c2)NC(=O)[C@H](CC(=O)O)NC(=O)[C@@H]2CCCN2C(=O)CN(C)C(=O)[C@H](Cc2ccc(-c3ccc(NC(=O)c4nn(CC(=O)O)c5ccccc45)cc3)cc2)NC(=O)[C@H](Cc2ccc(-c3ccccc3)cc2)NC(=O)[C@H](CN2CCOCC2)NC(=O)CSC[C@@H](C(=O)NCC(N)=O)NC1=O` [Example 625] ({CH2CO}-[Ala(morpholin-4-yl)][Bip][Bip(4'-NH)](Indazole3carbonyl(1-CH2COOH))[Sar]PD[dArg(ω-(3-HO-benzyl))]VPVYLCG-NH2; thioether N-13), the IC50 was < 50 nM.
Same read-out and setting: under `CC(C)C[C@@H]1NC(=O)[C@H](Cc2cccs2)NC(=O)[C@H](C(C)C)NC(=O)[C@@H]2CCCN2C(=O)[C@H](C(C)C)NC(=O)[C@@H](CCCNC(=N)NCc2cccc(O)c2)NC(=O)[C@H](CC(=O)O)NC(=O)[C@H](Cc2ccccn2)NC(=O)CN(C)C(=O)[C@H](Cc2ccc(-c3ccc(NC(=O)c4nn(CC(=O)O)c5ccccc45)cc3)cc2)NC(=O)[C@H](Cc2ccc(-c3ccccc3)cc2)NC(=O)[C@H](CN2CCOCC2)NC(=O)CSC[C@@H](C(=O)NCC(N)=O)NC1=O` [Example 626] ({CH2CO}-[Ala(morpholin-4-yl)][Bip][Bip(4'-NH)](Indazole3carbonyl(1-CH2COOH))[Sar][2Pal]D[dArg(ω-(3-HO-benzyl))]VPV[2Thi]LCG-NH2; thioether N-13) stands 50 to 200 nM.

Staying with this test, now noted: HEK-Blue-CD40L cells, NF-kB-driven secreted alkaline phosphatase reporter; TNFα 0.5 ng/ml; 18 h; read-out: TNF induced HEK-Blue assay IC50 value.
Consider `CC(C)C[C@@H]1NC(=O)[C@H](Cc2cccs2)NC(=O)[C@H](C(C)C)NC(=O)[C@@H]2CCCN2C(=O)[C@H](C(C)C)NC(=O)[C@@H](CCCNC(=N)N)NC(=O)[C@H](CC(=O)O)NC(=O)[C@H](Cc2ccccn2)NC(=O)CN(C)C(=O)[C@H](Cc2ccc(-c3ccc(NC(=O)c4cccc(CC(=O)O)c4)cc3)cc2)NC(=O)[C@H](Cc2ccc(-c3ccc(C(=O)O)cc3)cc2)NC(=O)[C@H](CC2CCCCC2)NC(=O)CSC[C@@H](C(=O)NCC(N)=O)NC1=O` [Example 613] ({CH2CO}-[Cha][Bip(4'-COOH)][Bip(4'-NHCO-C6H4-3-CH2COOH)][Sar][2Pal]D[dR]VPV[2Thi]LCG-NH2; thioether N-13), for which the IC50 was 50 to 200 nM.
Still for that read-out and setting: the same measure for `CC(C)C[C@@H]1NC(=O)[C@H](Cc2cccs2)NC(=O)[C@H](C(C)C)NC(=O)[C@@H]2CCCN2C(=O)[C@H](C(C)C)NC(=O)[C@@H](CCCNC(=N)N)NC(=O)[C@H](CC(=O)O)NC(=O)[C@H](Cc2ccccn2)NC(=O)CN(C)C(=O)[C@H](Cc2ccc(-c3ccc(NC(=O)c4cccc(OCC(=O)O)c4)cc3)cc2)NC(=O)[C@H](Cc2ccc(-c3ccc(C(=O)O)cc3)cc2)NC(=O)[C@H](CC2CCCCC2)NC(=O)CSC[C@@H](C(=O)NCC(N)=O)NC1=O` [Example 614] ({CH2CO}-[Cha][Bip(4'-COOH)][Bip(4'-NH)](Benzoyl(3-OCH2COOH))[Sar][2Pal]D[dR]VPV[2Thi]LCG-NH2; thioether N-13): 50 to 200 nM; for `CC(C)C[C@@H]1NC(=O)[C@H](Cc2cccs2)NC(=O)[C@H](C(C)C)NC(=O)[C@@H]2CCCN2C(=O)[C@H](C(C)C)NC(=O)[C@@H](CCCNC(=N)N)NC(=O)[C@H](CC(=O)O)NC(=O)[C@H](Cc2ccccn2)NC(=O)CN(C)C(=O)[C@H](Cc2ccc(-c3ccc(NC(=O)c4cccc(OCC(=O)O)c4)cc3)cc2)NC(=O)[C@H](Cc2ccc(-c3ccc(C(=O)O)cc3)cc2)NC(=O)[C@H](C(C)(C)C)NC(=O)CSC[C@@H](C(=O)NCC(N)=O)NC1=O` [Example 615] ({CH2CO}-[Tle][Bip(4'-COOH)][Bip(4'-NH)](Benzoyl(3-OCH2COOH))[Sar][2Pal]D[dR]VPV[2Thi]LCG-NH2; thioether N-13): 50 to 200 nM.
`CC(C)C[C@@H]1NC(=O)[C@H](Cc2cccs2)NC(=O)[C@H](C(C)C)NC(=O)[C@@H]2CCCN2C(=O)[C@H](C(C)C)NC(=O)[C@@H](CCCNC(=N)N)NC(=O)[C@H](CC(=O)O)NC(=O)[C@H](Cc2ccccn2)NC(=O)CN(C)C(=O)[C@H](Cc2ccc(-c3ccc(NC(=O)c4cccc(OCC(=O)O)c4)cc3)cc2)NC(=O)[C@H](Cc2ccc(-c3ccccc3)cc2)NC(=O)[C@H](CC2CCCCC2)NC(=O)CSC[C@@H](C(=O)NCC(N)=O)NC1=O` [Example 616] ({CH2CO}-[Cha][Bip][Bip(4'-NH)](Benzoyl(3-OCH2COOH))[Sar][2Pal]D[dR]VPV[2Thi]LCG-NH2; thioether N-13): the IC50 was in the range of 50 to 200 nM.
The same measure, in the same setting: under `CC(C)C[C@@H]1NC(=O)[C@H](Cc2cccs2)NC(=O)[C@H](C(C)C)NC(=O)[C@@H]2CCCN2C(=O)[C@H](C(C)C)NC(=O)[C@@H](CCCNC(=N)N)NC(=O)[C@H](CC(=O)O)NC(=O)[C@H](Cc2ccccn2)NC(=O)CN(C)C(=O)[C@H](Cc2ccc(-c3ccc(NC(=O)c4ccc(CC(=O)O)cc4)cc3)cc2)NC(=O)[C@H](Cc2ccc(-c3ccccc3)cc2)NC(=O)[C@H](CC2CCCCC2)NC(=O)CSC[C@@H](C(=O)NCC(N)=O)NC1=O` [Example 617] ({CH2CO}-[Cha][Bip][Bip(4'-NHCO-C6H4-4-CH2COOH)][Sar][2Pal]D[dR]VPV[2Thi]LCG-NH2; thioether N-13) stands < 50 nM; under `CC(C)C[C@@H]1NC(=O)[C@H](Cc2cccs2)NC(=O)[C@H](C(C)C)NC(=O)[C@@H]2CCCN2C(=O)[C@H](C(C)C)NC(=O)[C@@H](CCCNC(=N)N)NC(=O)[C@H](CC(=O)O)NC(=O)[C@H](Cc2ccccn2)NC(=O)CN(C)C(=O)[C@H](Cc2ccc(-c3ccc(NC(=O)c4cccc(CC(=O)O)c4)cc3)cc2)NC(=O)[C@H](Cc2ccc(-c3ccccc3)cc2)NC(=O)[C@H](CC2CCCCC2)NC(=O)CSC[C@@H](C(=O)NCC(N)=O)NC1=O` [Example 618] ({CH2CO}-[Cha][Bip][Bip(4'-NHCO-C6H4-3-CH2COOH)][Sar][2Pal]D[dR]VPV[2Thi]LCG-NH2; thioether N-13), 50 to 200 nM.

For orientation: IC50 means the midpoint of a concentration-inhibition curve.
